In patent US20260055108A1, “TRIAZINE COMPOUNDS AND USES THEREOF” (HUTCHMED LIMITED, priority 2022, published 2026):

Columns and labels:
[1] = target: Recombinant human Menin protein (2-610) / MLL polypeptide binding (Homo sapiens (Human), UniProt O00255); experiment: Menin and MLL protein binding at a molecular level (fluorescence polarization method); details: inhibition of Menin / MLL polypeptide binding
From the text: Example 3: Determination of the Activity of the Compounds of the Present Invention on Menin and MLL Protein Binding at a Molecular Level (Fluorescence Polarization Method)
1. Reagents, Materials and Instruments:
• Recombinant human Menin protein (2-610): ChemPartner, CP2021020801; • MLL polypeptide (6-FAM-Ahx-SG-40): GL Biochem, 865700; • Trizma® hydrochloride buffer solution (Tris): Sigma, T2194-1 L; • NaCl: Invitrogen, AM9760G; • TCEP: Sigma, 646547; • DMSO: Sigma, D4540; • 384-well plate: Corning, 4514; • Envision: PerkinElmer.
2. Preparation of Reaction Solutions
• 1) Buffer solution: 20 mL of Tris and 4 mL of NaCl were added respectively to 376 mL of ddH2O, with pH adjusted to 7.5, and TCEP was added before testing with a dilution ratio of 1:500. • 2) 5× test compounds: the test compound was subjected to gradient dilution with the buffer solution to 5-fold the reaction concentration, so that the final concentrations of the compound were 1.000, 0.333, 0.111, 0.037, 0.012, 0.004, 0.001 and 0.0005 μM, respectively. • 3) 2.5× Menin protein reaction solution: the Menin protein was diluted to 5 nM with the buffer solution. • 4) 2.5×MLL polypeptide reaction solution: the MLL polypeptide was diluted to 5 nM with the buffer solution.
1) Binding Reaction (20 μL System)
4 μL of 5× test compound was added to each reaction well of the 384-well plate, and the corresponding volume of 10% DMSO was added to the control wells. Except the control wells, 8 μL of Menin protein reaction solution was added to each well. The reaction solution was incubated at room temperature for 30 minutes, and then 8 μL of MLL polypeptide reaction solution was added to each well. The final concentrations of DMSO in the test compound wells and control wells were all 2%. The 384-well plate was sealed and incubated at room temperature for 30 minutes in the dark.
Three control groups were set up: • a blank control group only containing a buffer solution; • a negative control group only containing MLL polypeptide reaction solution; and • a positive control group containing Menin protein reaction solution and MLL polypeptide reaction solution.
The vertical polarization S value and the horizontal polarization P value (excitation wavelength was 480 nm, and emission wavelength was 535 nm) were measured with Envision.
Corrected S is the S value of the negative control group—the S value of the blank control group
Corrected P is the P value of the negative control group—the P value of the blank control group
(§1) • calculated by using software XL-Fit™ (version 5.3) supplied by ID Business Solutions (Guildford, UK), which is an additional software to Microsoft Excel.

[2] = system: MV-4-11 cells (human acute myelogenous leukemia cell line carrying MLL-AF4 mutation); experiment: Cell proliferation assay, MV-4-11 (CellTiter-Glo); type: cell-based; details: Homo sapiens, MV4-11, 72 h, MV-4-11 cells, 3 days treatment, CellTiter-Glo; read-out: GI50
Protocol: Example 4 Cell Proliferation Assay
MV-4-11 (ATCC, CRL-9591), a human acute myelogenous leukemia cell line carrying MLL-AF4 mutation. Cells were cultured in an IMDM medium containing 10% heat-inactivated fetal bovine serum (HIFBS) and supplemented with 50 μM β-mercaptoethanol.
2. Reagents, Materials and Instruments:
• IMDM culture solution: GIBCO, 12440-053; • HIFBS: GIBCO, 10100-147; • β-mercaptoethanol: Sigma, M3148; • CellTiter-Glo® 2.0 assay kit (CTG): Promega, G9243; • DMSO: Sigma, D4540; • 96-well cell culture plate: Corning, 3903; • Envision: PerkinElmer.
MV-4-11 cells were resuspended in a medium, added to a 96-well plate at a density of 3000 cells/well with a volume of 100 μL/well, and cultured in a cell incubator at 5% CO2 and 37° C. for 4 hours. The test compound subjected to gradient dilution with the medium was added to a cell culture plate, and the final concentrations of the compound were 1.100, 0.367, 0.122, 0.041, 0.014, 0.005, 0.002 and 0.001 μM, respectively. The corresponding volume of DMSO diluent was added to a blank control well, and the final concentrations of DMSO in the experimental group and control group were both 0.1%. The cell plate was placed in a cell incubator at 5% CO2 and 37° C. and cultured for 3 days.
On day 0 and day 3 of the treatment, 50 μL/well CTG reagent was added to the cell plate and shaken at room temperature in the dark for 10 min, and then the chemiluminescence value of each well was measured with Envision.
[formula] • wherein: • luminescence valuetest sample: the chemiluminescence value of a cell well treated with the test compound for 3 days. • luminescence valueday 0: the chemiluminescence value of a cell well at day 0. • luminescence valuecell well: the chemiluminescence value of a cell well not treated with the compound for 3 days.
as §1

Chain of Recombinant human Menin protein (2-610) / MLL polypeptide binding (O00255 2-610): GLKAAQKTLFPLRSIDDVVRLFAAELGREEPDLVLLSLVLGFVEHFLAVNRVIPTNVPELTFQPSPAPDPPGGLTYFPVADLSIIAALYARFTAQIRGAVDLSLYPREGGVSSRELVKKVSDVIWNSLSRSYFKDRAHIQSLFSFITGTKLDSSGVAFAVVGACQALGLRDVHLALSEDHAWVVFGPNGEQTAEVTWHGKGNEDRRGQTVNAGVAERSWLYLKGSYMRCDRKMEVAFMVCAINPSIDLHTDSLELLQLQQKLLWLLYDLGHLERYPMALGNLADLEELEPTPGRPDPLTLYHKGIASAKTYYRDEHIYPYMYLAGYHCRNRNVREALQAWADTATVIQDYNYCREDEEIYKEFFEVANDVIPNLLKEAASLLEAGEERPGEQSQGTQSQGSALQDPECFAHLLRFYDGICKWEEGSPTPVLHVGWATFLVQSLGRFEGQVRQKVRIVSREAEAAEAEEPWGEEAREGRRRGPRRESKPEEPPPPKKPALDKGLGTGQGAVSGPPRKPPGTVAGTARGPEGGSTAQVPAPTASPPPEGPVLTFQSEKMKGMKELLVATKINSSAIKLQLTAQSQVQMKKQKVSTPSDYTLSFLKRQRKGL

Compound	IC50 [1]	GI50 [2]
CCN(C(=O)c1cc(F)ccc1Oc1nncnc1N1CC2(CCN(CC3CCN(C(=O)NC(C)C)CC3)CC2)C1)C(C)C [Compound 29]	2.5 nM	15 nM
CCN(C(=O)c1cc(F)ccc1Oc1nncnc1N1CC2(CCN(CC3CCN(C(=O)NC(C)(C)C)CC3)CC2)C1)C(C)C [Compound 30]	1.7 nM	5 nM
O=C(NC1CC1)N1CCC(CN2CCC3(CC2)CN(c2ncnnc2Oc2ccc(F)cc2)C3)CC1 [Compound 31]	155 nM	284 nM
CCN(C(=O)c1cc(F)ccc1Oc1nncnc1N1CC2(CCN(CC3CCN(C(=O)NC4CCC4)CC3)CC2)C1)C(C)C [Compound 32]	1 nM	4 nM
CCN(C(=O)c1cc(F)ccc1Oc1nncnc1N1CC2(CCN(CC3CCN(C(=O)NC4COC4)CC3)CC2)C1)C(C)C [Compound 33]	2.9 nM	18 nM
CCN(C(=O)c1cc(F)ccc1Oc1nncnc1N1CC2(CCN(CC3CCN(C(=O)NCc4ccccc4)CC3)CC2)C1)C(C)C [Compound 34]	8.1 nM	24 nM
CCN(C(=O)c1cc(F)ccc1Oc1nncnc1N1CC2(CCN(CC3CCN(C(=O)NCCOC)CC3)CC2)C1)C(C)C [Compound 35]	10.7 nM	35 nM
CCN(C(=O)c1cc(F)ccc1Oc1nncnc1N1CC2(CCN(CC3CCN(C(=O)Nc4ccccc4F)CC3)CC2)C1)C(C)C [Compound 36, 4-((2-(6-(2-(ethyl(isopropyl)carbamoyl)-4-fluorophenoxy)-1,2,4-triazin-5-yl)-2,7-diazaspiro[3.5]nonan-7-yl)methyl)-N-(2-fluorophenyl)piperidine-1-carboxamide]	4.6 nM	16 nM
CCN(C(=O)c1cc(F)ccc1Oc1nncnc1N1CC2(CCN(CC3CCN(C(=O)Nc4ccccn4)CC3)CC2)C1)C(C)C [Compound 37]	13.7 nM	23 nM
CCN(C(=O)c1cc(F)ccc1Oc1nncnc1N1CC2(CCN(CC3CCN(c4ccc(C(F)(F)F)nn4)CC3)CC2)C1)C(C)C [Compound 38, N-ethyl-5-fluoro-N-isopropyl-2-((5-(7-((1-(6-(trifluoromethyl)pyridazin-3-yl)piperidin-4-yl)methyl)-2,7-diazaspiro[3.5]nonan-2-yl)-1,2,4-triazin-6-yl)oxy)benzamide]	1.7 nM	2 nM
CCN(C(=O)c1cc(F)ccc1Oc1nncnc1N1CC2(CCN(CC3CCN(C[C@@H](O)CC#N)CC3)CC2)C1)C(C)C [Compound 39]	68.3 nM	97 nM
CCN(C(=O)c1cc(F)ccc1Oc1nncnc1N1CC2(CCN(CC3CCN(c4cnccn4)CC3)CC2)C1)C(C)C [Compound 40]	11.4 nM	23 nM
CCN(C(=O)c1cc(F)ccc1Oc1nncnc1N1CC2(CCN(CC3CCN(c4cnc(Cl)nn4)CC3)CC2)C1)C(C)C [Compound 41]	3.1 nM	8 nM
CCN(C(=O)c1cc(F)ccc1Oc1nncnc1N1CC2(CCN(CC3CCN(c4ccc(Br)c(=O)n4C)CC3)CC2)C1)C(C)C [Compound 42]	89.9 nM	37 nM
CCN(C(=O)c1cc(F)ccc1Oc1nncnc1N1CC2(CCN(CC3CCN(c4ccc5nccn5n4)CC3)CC2)C1)C(C)C [Compound 43]	6.4 nM	13 nM
CCN(C(=O)c1cc(F)ccc1Oc1nncnc1N1CC2(CCN(CC3CCN(c4ccc(C5CC5)nn4)CC3)CC2)C1)C(C)C [Compound 44]	4.3 nM	14 nM
CCN(C(=O)c1cc(F)ccc1Oc1nncnc1N1CC2(CCN(CC3CCN(c4cc(C(F)(F)F)cnn4)CC3)CC2)C1)C(C)C [Compound 45]	3.9 nM	7 nM

Compound	IC50 [1]	GI50 [2]
CCN(C(=O)c1cc(F)ccc1Oc1nncnc1N1CC2(CCN(CC3CCN(c4ccc(Cl)nn4)CC3)CC2)C1)C(C)C [Compound 46]	1.1 nM	2 nM
CCN(C(=O)c1cc(F)ccc1Oc1nncnc1N1CC2(CCN(CC3CCN(c4ccc(C#N)nn4)CC3)CC2)C1)C(C)C [Compound 47]	2.6 nM	3 nM
CCN(C(=O)c1cc(F)ccc1Oc1nncnc1N1CC2(CCN(CC3CCN(c4cc(C#N)cnn4)CC3)CC2)C1)C(C)C [Compound 48]	4.7 nM	15 nM
CCN(C(=O)c1cc(F)ccc1Oc1nncnc1N1CC2(CCN(CC3CCN(c4cnc(C#N)cn4)CC3)CC2)C1)C(C)C [Compound 49]	18.5 nM	24 nM
CCN(C(=O)c1cc(F)ccc1Oc1nncnc1N1CC2(CCN(CC3CCN(c4ccc(C#N)cn4)CC3)CC2)C1)C(C)C [Compound 50]	5.4 nM	7 nM
CCN(C(=O)c1cc(F)ccc1Oc1nncnc1N1CC2(CCN(CC3CCN(c4ccc(C#N)cc4)CC3)CC2)C1)C(C)C [Compound 51]	6.5 nM	9 nM
CCN(C(=O)c1cc(F)ccc1Oc1nncnc1N1CC2(CCN(CC3CCN(c4cc(C(N)=O)ccn4)CC3)CC2)C1)C(C)C [Compound 52]	0.9 nM	3 nM
CCN(C(=O)c1cc(F)ccc1Oc1nncnc1N1CC2(CCN(CC3(NCCOC)CC3)CC2)C1)C(C)C [Compound 53]	99 nM	87 nM
CCN(C(=O)c1cc(F)ccc1Oc1nncnc1N1CC2(CCN(CC3CCN(c4ncccc4C(N)=O)CC3)CC2)C1)C(C)C [Compound 54]	15.8 nM	21 nM
CCN(C(=O)c1cc(F)ccc1Oc1nncnc1N1CC2(CCN(CC3CCN(c4ccn5ncnc5c4)CC3)CC2)C1)C(C)C [Compound 55, 2-((5-(7-((1-([1,2,4]triazolo[1,5-a]pyridin-7-yl)piperidin-4-yl)methyl)-2,7-diazaspiro[3.5]nonan-2-yl)-1,2,4-triazin-6-yl)oxy)-N-ethyl-5-fluoro-N-isopropylbenizamide]	3.5 nM	4 nM
CCN(C(=O)c1cc(F)ccc1Oc1nncnc1N1CC2(CCN(CC3CCN(c4ccc5ncnn5c4)CC3)CC2)C1)C(C)C [Compound 56]	28.4 nM	45 nM
CCN(C(=O)c1cc(F)ccc1Oc1nncnc1N1CC2(CCN(CC3CCN(c4ccccn4)CC3)CC2)C1)C(C)C [Compound 57, N-ethyl-5-fluoro-N-isopropyl-2-((5-(7-((1-(pyridin-2-yl)piperidin-4-yl)methyl)-2,7-diazaspiro[3.5]nonan-2-yl)-1,2,4-triazin-6-yl)oxy)benzamide]	3 nM	5 nM
CCN(C(=O)c1cc(F)ccc1Oc1nncnc1N1CC2(CCN(Cc3c(C)cc(C)[nH]c3=O)CC2)C1)C(C)C [Compound 58]	114 nM	230 nM
CCN(C(=O)c1cc(F)ccc1Oc1nncnc1N1CC2(CCN(Cc3ccc(Cl)nc3)CC2)C1)C(C)C [Compound 59]	> 1000 nM	> 3300 nM
CCN(C(=O)c1cc(F)ccc1Oc1nncnc1N1CC2(CCN(Cc3cnc(OC)c(Cl)c3C)CC2)C1)C(C)C [Compound 60]	574 nM	693 nM
CCN(C(=O)c1cc(F)ccc1Oc1nncnc1N1CC2(CCN(Cc3ccc(NCC#N)cc3C)CC2)C1)C(C)C [Compound 61]	89.4 nM	110 nM
